Assay results published in ChEMBL document CHEMBL1156165, “Novel 8-(furan-2-yl)-3-substituted thiazolo [5,4-e][1,2,4] triazolo[1,5-c] pyrimidine-2(3H)-thione derivatives as potential adenosine A(2A) receptor antagonists” (Bioorg Med Chem, 2010).
Calls of active or inactive are those of the source. The rule behind the calls is not given here.

Assays:
Homo sapiens = species on record: Homo sapiens; assay: Selectivity ratio of Ki for human adenosine A1 receptor to Ki for human adenosine A2A receptor
Adenosine receptor A2a = Adenosine receptor A2a (Homo sapiens, UniProt P29274); assay: biochemical
Description: Displacement of [3H]ZM241385 from human adenosine A2A receptor expressed in HEK293 cells after 60 mins by rapid filtration assay

Adenosine receptor A1 = target: T1, Adenosine receptor A1 (Homo sapiens, UniProt P30542); assay: biochemical
T1 sequence (P30542 whole entry): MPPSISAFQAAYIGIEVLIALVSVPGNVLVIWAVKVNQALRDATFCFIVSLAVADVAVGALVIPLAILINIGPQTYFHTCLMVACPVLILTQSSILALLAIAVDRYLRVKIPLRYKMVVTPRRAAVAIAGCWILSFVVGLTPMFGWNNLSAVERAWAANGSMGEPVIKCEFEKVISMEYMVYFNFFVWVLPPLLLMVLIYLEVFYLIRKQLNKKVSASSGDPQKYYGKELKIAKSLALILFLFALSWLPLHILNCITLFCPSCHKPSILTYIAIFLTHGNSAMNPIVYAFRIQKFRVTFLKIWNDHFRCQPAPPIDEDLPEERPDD
Description: Displacement of [3H]DPCPX from human adenosine A1 receptor expressed in HEK293 cells after 60 mins by rapid filtration assay

Mus musculus [1] = assay: Inhibition of haloperidol-induced catalepsy in Swiss albino mouse at 5 mg/kg, ip administered 30 mins prior to haloperidol challenge measured after 15 to 120 mins; type: functional, organism-based; set-up: dose 5 mg/kg
Mus musculus [2] = assay: Inhibition of haloperidol-induced catalepsy in Swiss albino mouse at 10 mg/kg, ip administered 30 mins prior to haloperidol challenge measured after 15 to 120 mins; type: functional, organism-based; set-up: dose 10 mg/kg
Mus musculus [3] = assay: Inhibition of haloperidol-induced catalepsy in Swiss albino mouse at 20 mg/kg, ip administered 30 mins prior to haloperidol challenge measured after 15 to 120 mins; type: functional, organism-based; set-up: dose 20 mg/kg
Mus musculus [4] = assay: Inhibition of haloperidol-induced akinesia in Swiss albino mouse at 5 mg/kg, ip administered 30 mins prior to haloperidol challenge measured after 15 to 120 mins; type: functional, organism-based; set-up: dose 5 mg/kg
Mus musculus [5] = assay: Inhibition of haloperidol-induced akinesia in Swiss albino mouse at 10 mg/kg, ip administered 30 mins prior to haloperidol challenge measured after 15 to 120 mins; type: functional, organism-based; set-up: dose 10 mg/kg
Mus musculus [6] = assay: Inhibition of haloperidol-induced akinesia in Swiss albino mouse at 20 mg/kg, ip administered 30 mins prior to haloperidol challenge measured after 15 to 120 mins; type: functional, organism-based; set-up: dose 20 mg/kg

Sequence of Adenosine receptor A2a (P29274 whole entry): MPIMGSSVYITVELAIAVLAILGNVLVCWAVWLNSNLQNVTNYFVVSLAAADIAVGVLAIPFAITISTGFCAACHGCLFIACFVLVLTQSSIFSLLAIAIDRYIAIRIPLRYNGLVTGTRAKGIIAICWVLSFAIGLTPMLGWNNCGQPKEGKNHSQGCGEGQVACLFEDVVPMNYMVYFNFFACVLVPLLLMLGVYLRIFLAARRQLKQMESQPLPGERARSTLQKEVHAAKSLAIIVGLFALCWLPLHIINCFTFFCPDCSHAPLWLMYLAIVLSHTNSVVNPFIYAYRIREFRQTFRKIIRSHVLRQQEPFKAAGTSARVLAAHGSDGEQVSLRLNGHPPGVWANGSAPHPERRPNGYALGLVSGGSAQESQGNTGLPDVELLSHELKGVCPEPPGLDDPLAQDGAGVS

SMILES	Ratio Ki (Homo sapiens)	Ki (Adenosine receptor A2a) [nM]	Ki (Adenosine receptor A1) [nM]	inhibition (Mus musculus [1])	inhibition (Mus musculus [2])	inhibition (Mus musculus [3])	inhibition (Mus musculus [4])	inhibition (Mus musculus [5])	inhibition (Mus musculus [6])
S=c1sc2c(ncn3nc(-c4ccco4)nc23)n1-c1ccc(Cl)cc1	0.197	0.152	0.03	–	–	–	–	–	–
S=c1sc2c(ncn3nc(-c4ccco4)nc23)n1-c1ccccc1I	0.571	0.7	0.4	–	–	–	–	–	–
S=c1sc2c(ncn3nc(-c4ccco4)nc23)n1-c1cccc(I)c1	320	0.0082	2.62	–	–	–	–	–	–
S=c1sc2c(ncn3nc(-c4ccco4)nc23)n1-c1cccc(Cl)c1	5	0.038	0.19	–	–	–	–	–	–
Fc1ccc(-n2c(=S)sc3c2ncn2nc(-c4ccco4)nc32)cc1	1.59	2.02	3.21	–	–	–	–	–	–
CCCCn1c(=S)sc2c1ncn1nc(-c3ccco3)nc21	1290	0.12	148	Active	Active	Active	Active	Active	Active
CCn1c(=S)sc2c1ncn1nc(-c3ccco3)nc21	0.028	3.56	0.096	–	–	–	–	–	–
C=CCn1c(=S)sc2c1ncn1nc(-c3ccco3)nc21	1250	0.016	19	Active	Active	Active	Active	Active	Active
S=c1sc2c(ncn3nc(-c4ccco4)nc23)n1-c1ccccc1	46.6	1.1	48	–	–	–	–	–	–
CCCn1c(=S)sc2c1ncn1nc(-c3ccco3)nc21	636	0.38	228	Active	Active	Active	Active	Active	Active
S=c1sc2c(ncn3nc(-c4ccco4)nc23)n1-c1ccc(I)cc1	10.8	0.57	6.13	–	–	–	–	–	–
